Assay results from ChEMBL document CHEMBL1208730, “Heteroaryl-linked 5-(1H-benzimidazol-1-yl)-2-thiophenecarboxamides: potent inhibitors of polo-like kinase 1 (PLK1) with improved drug-like properties” (Bioorg Med Chem Lett, 2010).
Converted amounts (≈) assume the structure as drawn.

Experiments:
[1] = Solubility of the compound in 20% SBE beta-cyclodextrin at pH 6; assay type: physicochemical
[2] = Clearance in iv dosed mouse; assay type: ADME, organism-based; settings: in vivo

Row | Structure (SMILES) | solubility [1] [µg/mL] | clearance [2] [mL/min/kg]
1 | C[C@@H](Oc1cc(-n2cnc3cc(-c4ccnc(N5CCN(C)CC5)c4)ccc32)sc1C(N)=O)c1ccccc1Cl | 500 (≈ 872 µM) | 52
2 | C[C@@H](Oc1cc(-n2cnc3cc(-c4ccnc(N5CCN(C)CC5)c4)ccc32)sc1C(N)=O)c1ccccc1C(F)(F)F | 870 (≈ 1430 µM) | 32
3 | C[C@@H](Oc1cc(-n2cnc3cc(-c4ccnc(NCCN(C)C)c4)ccc32)sc1C(N)=O)c1ccccc1C(F)(F)F | 3230 (≈ 5430 µM) | 62
4 | C[C@@H](Oc1cc(-n2cnc3cc(-c4ccnc(NC5CCN(C)CC5)c4)ccc32)sc1C(N)=O)c1ccccc1Cl | 1050 (≈ 1790 µM) | 48
5 | C[C@@H](Oc1cc(-n2cnc3cc(-c4cnn(CCN5CCN(C)CC5)c4)ccc32)sc1C(N)=O)c1ccccc1Cl | 4550 (≈ 7710 µM) | 54
6 | C[C@@H](Oc1cc(-n2cnc3cc(-c4ccncc4)ccc32)sc1C(N)=O)c1ccccc1Cl | 3 (≈ 6.32 µM) | 70
7 | C[C@@H](Oc1cc(-n2cnc3cc(-c4cnn(C)c4)ccc32)sc1C(N)=O)c1ccccc1Cl | 100 (≈ 209 µM) | 15

Further lines, results first:

Row | solubility [1] [µg/mL] | clearance [2] [mL/min/kg] | Structure (SMILES)
8 | 1000 (≈ 1910 µM) | 38 | C[C@@H](Oc1cc(-n2cnc3cc(-c4ccnc(N)c4)ccc32)sc1C(N)=O)c1ccccc1C(F)(F)F
9 | 200 (≈ 381 µM) | 70 | C[C@@H](Oc1cc(-n2cnc3cc(-c4ccnc(N)n4)ccc32)sc1C(N)=O)c1ccccc1C(F)(F)F
10 | – | 58 | C[C@@H](Oc1cc(-n2cnc3cc(-c4ccnc(N5CCNCC5)c4)ccc32)sc1C(N)=O)c1ccccc1Cl
11 | 30 (≈ 50.3 µM) | – | C[C@@H](Oc1cc(-n2cnc3cc(-c4ccnc(NCCS(C)(=O)=O)c4)ccc32)sc1C(N)=O)c1ccccc1Cl
12 | 300 (≈ 562 µM) | 109 | C[C@@H](Oc1cc(-n2cnc3cc(-c4ccnc(NCCO)c4)ccc32)sc1C(N)=O)c1ccccc1Cl
13 | 2930 (≈ 4990 µM) | 19 | C[C@@H](Oc1cc(-n2cnc3cc(-c4ccc(NC5CCN(C)CC5)nc4)ccc32)sc1C(N)=O)c1ccccc1Cl
14 | 530 (≈ 918 µM) | 82 | C[C@@H](Oc1cc(-n2cnc3cc(-c4cnn(CCN5CCOCC5)c4)ccc32)sc1C(N)=O)c1ccccc1Cl
15 | 5830 (≈ 10600 µM) | 44 | C[C@@H](Oc1cc(-n2cnc3cc(-c4cnn(CCCN(C)C)c4)ccc32)sc1C(N)=O)c1ccccc1Cl
16 | 3120 (≈ 5050 µM) | 44 | CCN1CCN(CCCn2cc(-c3ccc4c(c3)ncn4-c3cc(O[C@H](C)c4ccccc4Cl)c(C(N)=O)s3)cn2)CC1
